{"source": "patent US20150313801A1", "about": "“DETECTION OF CARIOUS DENTIN TISSUE AND REMOVAL THEREOF BY MEANS OF A DENTAL INSTRUMENT” (RLS GLOBAL AB, priority 2012, published 2015)", "key": {"[1]": {"system": "carious dentin tissue in infected teeth", "test": "Staining of caries-infected tooth slices, retention after NaCl and NaOH incubation (Example 2)", "details": "for colouring of tooth slice after NaCl and NaOH treatment (Day 4): after 1 M NaCl and 0.5 M NaOH overnight incubations, visible light, UV or fluorescence microscopy; for mode of binding to carious tissue in infected teeth (conclusion): conclusion of Example 2", "experimental": "Experiments were performed during 4 days. Whole caries infected tooth was added to an ortho acryl gel, which after hardening was used as a holder prior to […] of brand Zaw Micro Tone, German). Slices, having a thickness of 150 μm, were left over night in each colour to be tested (Day one). On the second day, the colours were washed out by rinsing the slices with MQ water and the teeth sections were photographed under either a microscope (6.7×; visible light), in UV (no microscope) or under a fluorescence microscope (100×). Thereafter, an aqueous salt solution (NaCl, 1 M) was added to the slices and incubated overnight. On the third day the slices were washed with MQ water and thereafter the same detection procedures were used as described above. Finally the tooth slices were exposed to an aqueous solution of NaOH (0.5 M) over night. The washing and detection path were then repeated as described previously (Day 4)."}, "carious dentin tissue [2]": {"system": "carious dentin tissue", "test": "Staining of carious dentin of a pre molar tooth combined with Carisolv excavation (Example 5)", "experimental": "Carious dentin tissue of a pre molar tooth was treated with Carisolv® to obtain a cavity and subsequently stained with an aqueous solution of the hydrazine derivative Alexa 594. The concentration of the aqueous solution of the hydrazine derivative Alexa 594 was 15-50 mM. […] Carisolv® was added to the cavity and excavation took place with a hand instrument from Mediteam Dental AB to reach a carious free level. […] A dentist performed tactile control of this surface and confirmed that the surface was free of caries.\nThe slightly stained surface was subjected to treatment with Carisolv® followed by excavation with a hand instrument. […] It was therefore concluded that all carious dentin tissue of the tooth had been removed. It was concluded that a hydrazine derivative such as Alexa 594 can be used in combination with a chemical means for carious dentin tissue such as Carisolv® for selective detection and removal of carious dentin tissue."}, "carious dentin tissue [3]": {"system": "carious dentin tissue", "test": "Staining of carious dentin of a pre molar tooth combined with high-speed dental drill (Example 6)", "details": "15-50 mM aqueous solution; Diamond/Fissure bur OB 301A FG; repeated several times", "experimental": "Carious dentin tissue of a pre molar tooth stained with an aqueous solution of the hydrazine derivative Alexa 594 in a concentration of 15-50 mM was subjected to mechanical treatment by a dental drill until no staining could be visually detected. The dental drill was a high-speed dental drill Diamond/Fissure bur OB 301A FG from Plandent Forssbergs Dental, Sweden. […] The stained surface was subjected to drilling until no staining could be visually detected. A dentist examined the surface visually and with a tactile instrument and concluded that the surface was free of caries. […] Again, drilling of the stained surface took place until no staining could be observed. […] Drilling and staining as described above in this example was repeated several times. […] This is in contrast to the successful selective detection and removal of carious dentin tissue using a hydrazine derivative in combination with a chemical means for treatment of carious dentin tissue as described in Example 5."}, "healthy dentin tissue [4]": {"system": "healthy dentin tissue", "test": "FTIR of healthy dentin tissue treated with hydrazine derivative (Example 3)", "set-up": "species or system human", "details": "13 mM aqueous solution overnight, FIGS. 3a and 3c", "text": "(§1) Extracted permanent human teeth with no previous dental restorations were selected due to their severe carious tissue status and analysed with FTIR within one week after extraction. The outermost part of the carious dental lesions was removed. The remaining dental carious tissue was divided into two layers; one outer layer with discoloured, soft and infected dental carious tissue and one inner layer that was excavated down to the observed uncoloured hard surface of the remaining healthy dentin controlled by tactile procedures.\n(§2) Healthy dentin tissue and carious dentin tissue from the innermost layer were collected. This healthy dentin tissue sample and carious dentin tissue sample were then each divided into three samples.\n(§3) The healthy dentin tissue sample (26 mg) was divided and treated as follows. […] Fluorescence of bounded hydrazine derivate Lucifer Yellow was checked by a UV lamp. […] The third sample, hereinafter denominated sample S3, (7 mg) and the last procedure was treated with NaBH4 (0.5 M in ethanol) and washed with concentrated ethanol to reduce aldehydes and ketones before the addition of an aqueous solution of the hydrazine derivate Lucifer Yellow (13 mM), repeated rinsing with purified water before dried and analysed.\n(§4) Thus, in total 6 samples (three from the healthy dentin tissue and three from the carious dentin tissue) were analysed with FTIR within one week after extraction. […]"}, "carious dentin tissue [5]": {"system": "carious dentin tissue", "test": "FTIR of carious dentin tissue treated with hydrazine derivative (Example 3)", "set-up": "species or system human", "text": "as §1, §2\nas §3, with “analysed. […]” for “analysed.”\nas §4"}, "carious dentin tissue [6]": {"system": "carious dentin tissue", "test": "TOF-SIMS of carious dentin tissue treated with hydrazine derivative (Example 4)", "experimental": "FTIR-ATR and TOF-SIMS analyses were performed on a sample group consisting of carious tissue inner most layers selected and estimated with an exactness of a working dentist. Samples were pooled from 4-6 teeth of inner layer of carious tissue (37 mg). The pooled sample was divided into two subgroups where one was exposed to the hydrazine derivate Lucifer Yellow and further analysed with TOF-SIMS and the other only analysed with FTIR-ATR. An aqueous solution of the hydrazine derivate Lucifer Yellow (1.8 mM) was added to the inner layer carious tissue (19 mg) and after 1 hour exposure washed with an aqueous solution of NaOH (0.5 M) and purified water before dried over vacuum. […] Each sample was attached to double side tape and analysed with a TOF-SIMS instrument (TOF-SIMS IV, CAMECA/IONTOF, GmbH, Germany). Positive secondary ion mass spectra were recorded from different areas of the sample at a size of 200×200 μm^2 and separated in a mass analyser and next compared with known mass spectra from the Ion Spec application (IonTof, GmbH, Germany, ver. 4.1) linked with the TOF-SIMS instrument. Negative secondary ion mass spectra were also recorded but gave no further information. […]\nThe upper spectrum was recorded for the sample of carious dentin tissue that had been milled but not subjected to treatment with hydrazine (i.e. the carious dentin tissue reference). […]"}, "healthy dentin tissue [7]": {"system": "healthy dentin tissue", "test": "TOF-SIMS of healthy dentin tissue treated with hydrazine derivative (Example 4)", "details": "TOF-SIMS positive spectra"}, "[8]": {"system": "smear layer on healthy dentin tissue", "test": "Staining of drilled dentin of an extracted healthy tooth, smear layer detection (Examples 7 and 8)", "experimental": "An extracted tooth in a healthy state with no previous dental restoration was subjected to drilling with the dental drill Cera Bur at a speed of approximately 1500 rpm. The dental drill Cera Bur was from the company Comet USA LLC and is described in EP 1 849 429. […] Therefore, the tooth was subjected to a high-speed dental drill resulting in a cavity exposing dentin tissue, i.e. a dentin tooth surface. The high speed dental drill was the high-speed dental drill Diamond/Fissure bur OB 301A FG from Plandent Forssbergs Dental, Sweden. […] The staining was visually detected using the instrument PoliLed SN06LP1121 operated at 460-470 nm, Faro.\nThe thus formed smear layer stained with Lucifer Yellow was subjected to drilling with the dental drill Cera Bur at a speed of approximately 1500 rpm after which rinsing with water took place. […] It was concluded that the Cera Bur drill removed the smear layer and the resulting dentin tissue was free of smear layer.\nIt was concluded that the dentin tooth surface was free of smear layer. […]\nAn extracted tooth in a healthy state with no previous dental restoration was subjected to a high-speed dental drill resulting in a cavity exposing dentin tissue, i.e. a dentin tooth surface. […] The staining was visually detected using the instrument PoliLed SN06LP1121 operated at 460-470 nm, Faro. […]"}}, "note": "“Also recorded” adds a separate entry of the source.", "data": [{"molecule": "6-(2-carboxy-5-(hydrazinecarbonyl)phenyl)-1,2,2,10,10,11-hexamethyl-2,10-dihydro-1H-pyrano[3,2-g]diquinoline-11-ium-4,8-diyl)methanesulfonate [Alexa Fluor® 594]", "values": [{"measurement": "colouring of tooth slice after NaCl and NaOH treatment (Day 4)", "setting": "[1]", "result": "still contained colourants"}, {"measurement": "colouring of tooth slice after NaCl and NaOH treatment (Day 4)", "setting": "[1]; listed as Alexa Fluor 594 ®", "result": "staining"}, {"measurement": "mode of binding to carious tissue in infected teeth (conclusion)", "setting": "[1]", "result": "bind irreversibly"}, {"measurement": "detection of carious dentin tissue compared with tactile control by a dentist", "setting": "carious dentin tissue [2]", "result": "better and more sensitive"}, {"measurement": "staining of carious cavity", "setting": "carious dentin tissue [2]; 15-50 mM aqueous solution, cavity obtained with Carisolv", "result": "intense dark bluish colour"}, {"measurement": "staining of surface judged caries free by tactile control", "setting": "carious dentin tissue [2]; after Carisolv and hand-instrument excavation", "result": "very slight staining"}, {"measurement": "staining after second Carisolv treatment and excavation", "setting": "carious dentin tissue [2]; final staining attempt", "result": "no staining took place"}, {"measurement": "staining after drilling with high-speed dental drill", "setting": "carious dentin tissue [3]", "result": "staining always took place"}]}, {"molecule": "NNC(=O)CSCC(=O)Nc1ccc(-c2c3ccc(=O)cc-3oc3cc(O)ccc23)c(C(=O)O)c1", "note": "[5-(2-2-hydrazinyl-2-oxoethylthio)acetamido)-2-(3-hydroxy-6-oxo-6H-xanthen-9-yl)benzoic acid]", "values": [{"measurement": "colouring of tooth slice after NaCl and NaOH treatment (Day 4)", "setting": "[1]", "result": "still contained colourants; also recorded: staining"}, {"measurement": "mode of binding to carious tissue in infected teeth (conclusion)", "setting": "[1]", "result": "bind irreversibly"}]}, {"molecule": "CC(=O)Nc1cc(S(=O)(=O)[O-])cc2cc(S(=O)(=O)[O-])c(/N=N/c3ccccc3)c(O)c12.[Na+].[Na+]", "note": "[Acid red 1]", "values": [{"measurement": "staining of tooth slice after incubation with 1 M NaCl", "setting": "[1]; 150 μm slices left overnight in colour, MQ rinse, 1 M NaCl overnight", "result": "only little staining remained"}, {"measurement": "colouring of tooth slice after NaCl and NaOH treatment (Day 4)", "setting": "[1]", "result": "no colouring"}, {"measurement": "mode of binding to carious tissue in infected teeth (conclusion)", "setting": "[1]", "result": "binds in a reversible way"}, {"measurement": "effect of rinsing on dye-labelled carious dentin tissue", "setting": "[1]; rinsing, general statement of the description", "result": "release of the dye bonded to the carious dentin tissue"}]}, {"molecule": "Cc1c(CC(=O)NN)c(=O)oc2cc(N)c(S(=O)(=O)O)cc12", "note": "[Alexa 350]", "values": [{"measurement": "colouring of tooth slice after NaCl and NaOH treatment (Day 4)", "setting": "[1]", "result": "still contained colourants"}, {"measurement": "mode of binding to carious tissue in infected teeth (conclusion)", "setting": "[1]", "result": "bind irreversibly"}]}, {"molecule": "NNC(=O)NN1C(=O)c2cc(S(=O)(=O)O)cc3c(N)c(S(=O)(=O)O)cc(c23)C1=O", "note": "[Lucifer Yellow]", "values": [{"measurement": "colouring of tooth slice after NaCl and NaOH treatment (Day 4)", "setting": "[1]", "result": "still contained colourants"}, {"measurement": "colouring of tooth slice after NaCl and NaOH treatment (Day 4)", "setting": "[1]; listed as Lucifer Yellow sodium salt", "result": "staining"}, {"measurement": "mode of binding to carious tissue in infected teeth (conclusion)", "setting": "[1]", "result": "bind irreversibly"}, {"measurement": "reaction with healthy dentin tissue", "setting": "healthy dentin tissue [4]", "result": "no reaction takes place"}, {"measurement": "selectivity carious versus healthy dentin tissue", "setting": "carious dentin tissue [5]; FTIR conclusion", "result": "selectively reacts with carious dentin tissue"}, {"measurement": "reaction with carious dentin tissue", "setting": "carious dentin tissue [5]; FTIR, peak at 1740 cm-1 no longer present, FIG. 3d", "result": "reaction has taken place"}, {"measurement": "selectivity carious versus healthy dentin tissue", "setting": "carious dentin tissue [6]; TOF-SIMS conclusion", "result": "selectively reacts with carious dentin tissue"}, {"measurement": "bonding to carious dentin tissue", "setting": "carious dentin tissue [6]; TOF-SIMS positive spectra, 1.8 mM, 1 hour exposure, NaOH wash", "result": "covalently bonded"}, {"measurement": "reaction with healthy dentin", "setting": "healthy dentin tissue [7]", "result": "did not react with healthy dentin"}, {"measurement": "staining after drilling the smear layer with round type steel dental drill", "setting": "[8]; aqueous solution 15-50 mM, 1500 rpm, rinsing with water", "result": "resulted in staining"}, {"measurement": "staining of smear layer (conclusion)", "setting": "[8]; smear layer formed by high-speed dental drill on healthy tooth", "result": "stained this smear layer"}]}]}
